How the values were obtained:
HCT116 MAP3K1 WT cells = test: PrestoBlue growth inhibition assay; format: cell-based; conditions: Homo sapiens, HCT-116, 72 h
Source text: (§1) To investigate the target dependency of 51-106 activity, MAP3K1 was genetically knocked out (KO) in HCT116 cells using CRISPR-Cas9 technology (Gene Editing and Screening Core Facility, Memorial Sloan Kettering Cancer Center). The HCT116 cell line was chosen because it is predominantly diploid, allowing for a more predictable outcome when utilizing CRISPR technology compared with cell lines with aneuploidy. […] Western blot analysis confirmed the absence of MAP3K1 protein expression in KO cells compared to non-targeting control (NTC) MAP3K1 wild-type (WT) cells (Figure 3C). The MAP3K1 primary antibody used binds to residues 50 and 100 of the N-terminus of MAP3K1. HCT116 MAP3K1 WT and MAP3K1 KO cells were subjected to PrestoBlue growth inhibition assay with 51-106 treatment. […] Further optimization of 51-106 and/or the use of emerging methods such as DNA-encoded library based screens followed by machine learning (DEL-ML) along with a comprehensive suite of biophysical and biochemical screens should be employed to develop a MAP3K1 chemical probe.
(§2) A suspension of in 90 μL media was plated per well in clear, flat-bottomed, sterile, 96-well tissue culture plates (Cat# 12-565-438; Fisher Scientific, Waltham, MA, USA). The cells were allowed to adhere overnight in a humidified 5% CO2 incubator at 37 °C. Drug working solutions were prepared from 10 mM DMSO (Cat# BP231; Fisher Scientific) stocks. Drugs were added in 6 dilutions in triplicates. Ten μL of the working solution was added to each well in the plate to yield a final concentration of 20—0.63 μM drug in 1% DMSO. Blank DMSO controls were also included. […] Fluorescence (Ex 560, Em 590) was measured on a plate reader (Spectramax M5e; Molecular Devices) to determine T0. […] Fluorescence was measured on a plate reader. Wells with 1% DMSO were used to determine T100. % Growth was calculated as [(Fluorescence read of a well − T0)/(T100 − T0)] ∗ 100. The data were plotted using Prism V 9.1.0, and the IC50 values were determined using a four-parameter Logistic Curve Fitting function.

HCT116 MAP3K1 KO cells = test: PrestoBlue growth inhibition assay; format: cell-based
Source text: as §1, §2

[1] = system: TNFα-induced, MAP3K1-mediated IKKβ phosphorylation; test: AlphaLISA phospho-IKKβ / total IKKβ assay in MiaPaCa2 cells; format: cell-based, Human; conditions: 20, 10, 5 μM, 30 min pretreatment, 10 ng/mL TNFα
Source text: MAP3K1 was previously shown to phosphorylate IKKβ [12] and regulate NF-κB signaling. Therefore, we validated the ability of 51-106 to inhibit MAP3K1 by probing the phosphorylation status of the known substrate, IKKβ, using an AlphaLISA assay. The pancreatic cancer cells (MiaPaCa2) were subjected to a 30-min pretreatment with varying concentrations of 51-106, followed by TNFα stimulation to induce IKKβ phosphorylation. Following a 15-min stimulation, the levels of phospho-IKKβ and total IKKβ were quantified. […] (Figure 3A). Next, we evaluated the efficacy of 51-106 in a cell-based reporter assay utilizing a HeLa cell line that specifically responds to TNFα induced expression of a luciferase reporter gene that is under the control of an NF-κB response element.
A suspension of MiaPaCa2 cells (2 × 10^5/well) in 200 μL media was plated in a flat, clear-bottomed, sterile, 48-well tissue culture plate (Cat# 353230; Corning; Corning, NY, USA). The cells were allowed to attach to the plate for ~8 h in a humidified 5% CO2 incubator at 37 °C. […] Phospho-IKKβ levels were normalized to total […], and fold change was calculated compared to DMSO treatment. […] The statistical significance between groups was determined via unpaired t-tests coupled with post hoc analysis with Welch’s correction.

## Cn1cc(-c2cnc3ccc(NC(=O)Nc4ccc(F)c(C(F)(F)F)c4)cc3n2)cn1 [51-106, 1-(4-Fluoro-3-(trifluoromethyl)phenyl)-3-(3-(1-methyl-1H-pyrazol-4-yl)quinoxalin-6-yl)urea]
HCT116 MAP3K1 WT cells
  IC50: ~1.8 µM
HCT116 MAP3K1 KO cells; HCT116 MAP3K1 KO versus WT
  increase in IC50 in MAP3K1 KO cells: 5 fold
HCT116 MAP3K1 KO cells; Homo sapiens, HCT-116, 72 h, HCT116 MAP3K1 KO, 72 h, PrestoBlue
  IC50: ~8.9 µM
[1]
  TNFα-induced, MAP3K1-mediated IKKβ phosphorylation (phospho-IKKβ / total IKKβ): inhibits TNFα-induced, MAP3K1-mediated IKKβ phosphorylation in a dose-dependent manner
